We go through 19 compounds from paper PMC7604827 (Bioorganic & medicinal chemistry, 2011).

The subject of data set [1] is cell–cell fusion reaction between target cells expressing CD4/CCR5 and effector cells expressing the envelope protein of HIV-1. It is filed as cell-based.
For data set [2] the following is noted: rat, 10 mg/kg, po.
The conditions of data set [3]: pH 6.8; cited from earlier work.
Data set [4] addresses T1, human CCR5 (Homo sapiens, UniProt P51681). The conditions noted are these: (3R,1′R)-configuration versus other stereoisomers; cited from earlier work.
The test system of data set [5] is broad panel of receptors and transporters including the other chemokines. Put plainly: Broad panel of receptors and transporters including the other chemokines.
The conditions of data set [6]: up to the dosage of 100 mg/kg, po.
The next data set addresses CCR5/hRANTES (Cavia porcellus, UniProt A0A286Y1F6). The conditions noted are these: read-out: CCR5/hRANTES Ca assay IC50; Guinea pig.
A short description of another data set: in vivo. The conditions noted are these: rat, po, 10 mg/kg.
In data set [7] the target is T1, human CCR5. The class given is cell-based.
In the next data set the test system is HIV-1Ba-L (R5). The conditions noted are these: inhibition of HIV p24 antigen expression in PBMC, mean ± SD, triplicate.
For the next data set, the system named is HIV-1MM (R5MDR). The conditions noted are these: read-out: Anti-HIV-1 activity HIV-1MM (R5MDR) IC50 ± SD; inhibition of HIV p24 antigen expression in PBMC, mean ± SD, triplicate.

Where a name gives a salt, the structure may show the parent alone. Read-outs that look alike come from different tables or passages of the source. Bounds are passed on as bounds.

T1 sequence (P51681 whole entry): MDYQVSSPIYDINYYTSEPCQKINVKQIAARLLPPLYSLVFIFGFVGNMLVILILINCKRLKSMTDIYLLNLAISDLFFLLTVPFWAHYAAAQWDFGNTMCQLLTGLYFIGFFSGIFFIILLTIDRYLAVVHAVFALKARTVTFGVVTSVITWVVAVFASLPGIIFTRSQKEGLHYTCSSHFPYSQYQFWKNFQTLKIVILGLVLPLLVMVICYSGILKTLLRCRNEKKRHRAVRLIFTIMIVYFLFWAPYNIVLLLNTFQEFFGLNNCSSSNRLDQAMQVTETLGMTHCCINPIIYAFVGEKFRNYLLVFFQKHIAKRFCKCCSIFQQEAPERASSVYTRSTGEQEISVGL
CCR5/hRANTES, sequence (A0A286Y1F6 1-353): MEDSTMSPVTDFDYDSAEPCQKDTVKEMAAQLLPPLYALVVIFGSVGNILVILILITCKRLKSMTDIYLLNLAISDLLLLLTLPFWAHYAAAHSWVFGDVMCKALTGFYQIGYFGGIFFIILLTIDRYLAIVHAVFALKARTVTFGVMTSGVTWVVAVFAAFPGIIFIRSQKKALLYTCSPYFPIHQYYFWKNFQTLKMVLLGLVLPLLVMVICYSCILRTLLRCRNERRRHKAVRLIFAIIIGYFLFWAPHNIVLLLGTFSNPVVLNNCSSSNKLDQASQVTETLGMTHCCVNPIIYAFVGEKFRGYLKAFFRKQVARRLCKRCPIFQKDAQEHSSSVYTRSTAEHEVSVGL

On to `CCCCN1C(=O)[C@@H](C(O)C2CCC(O)CC2)NC(=O)C12CCN(Cc1ccc(Oc3ccc(C(=O)O)cc3)cc1)CC2` (stereo in doubt) [Compound 20b, 4-[4-({(3R)-1-Butyl-3-[(R)-hydroxy(4-hydroxycyclohexyl)methyl]-2,5-dioxo-1,4,9-triazaspiro[5.5]undec-9-yl}methyl)phenoxy]benzoic acid hydrochloride], for which, in [1] (read-out: Fusion assay IC50), the IC50 is 129 nM.
For `CCCCN1C(=O)C(C(C)C)NC(=O)C12CCN(Cc1ccc(Oc3ccccc3)cc1)CC2.Cl` (stereo not drawn) [Compound 1], the BA in [2] came out at 1.3%. Also, the aqueous solubility entry in data set [3] is recorded as “less than 0.2 μg/ml”.
In data set [2], `CCCCN1C(=O)C(CC2CCCCC2)NC(=O)C12CCN(Cc1ccc(Oc3ccc(C(=O)NC)cc3)cc1)CC2.Cl` (stereo not drawn) [Compound 2] gave a BA of 1.9%.
In the case of `CCCCN1C(=O)[C@@H]([C@H](O)C(C)C)NC(=O)C12CCN(Cc1ccc(Oc3ccccc3)cc1)CC2.Cl` [Compound 3], on human CCR5 [4], the “fold more potency than the other stereoisomers in the Ca assay” value is 4.5–12 fold.
`CCCCN1C(=O)[C@H](CC2CCCCC2)NC(=O)C12CCN(Cc1ccc(Oc3ccc(C(=O)O)cc3)cc1)CC2.Cl` [Compound 5] showed a BA in data set [2] of 34%.
With `CCCCN1C(=O)[C@@H]([C@H](O)C2CCCCC2)NC(=O)C12CCN(Cc1ccc(Oc3ccc(C(=O)O)cc3)cc1)CC2.Cl` [Compound 6a, 4-[4-({(3R)-1-Butyl-3-[(R)-cyclohexyl(hydroxy)methyl]-2,5-dioxo-1,4,9-triazaspiro[5.5]undec-9-yl}methyl)phenoxy]benzoic acid hydrochloride], the “activity against a broad panel of receptors and transporters” value in data set [5] is recorded as “no significant activity”. This compound also displayed a BA in data set [2] of 23%. The “14-day rat safety study result” value in data set [6] is listed as “did not show any significant safety problem”. Also, on CCR5/hRANTES, the IC50 is greater than 30000 nM. In addition, the AMES test result in “AMES test” is listed as “did not show any significant safety problem”.
Take `CCCCN1C(=O)[C@@H]([C@H](O)C2CCCCC2)NC(=O)C12CCN(Cc1ccc(Oc3ccc(O)cc3)cc1)CC2` [Compound 8, (3R)-1-Butyl-3-[(R)-cyclohexyl(hydroxy)methyl]-9-[4-(4-hydroxyphenoxy)benzyl]-1,4,9-triazaspiro[5.5]undecane-2,5-dione hydrochloride]: in data set [1] (read-out: Fusion assay IC50), the IC50 was determined as 2.8 nM.
By AUC is commonly meant concentration integrated over time. Read a high AUC as high exposure. As a reminder, the Cmax is the peak of the concentration-time curve. In turn, `CCCCN1C(=O)[C@@H]([C@H](O)C2CCCCC2)NC(=O)C12CCN(Cc1ccc(Oc3ccc(C(=O)NC)cc3)cc1)CC2.Cl` [Compound 10, 4-[4-({(3R)-1-Butyl-3-[(R)-cyclohexyl(hydroxy)methyl]-2,5-dioxo-1,4,9-triazaspiro[5.5]undec-9-yl}methyl)phenoxy]-N-methylbenzamide hydrochloride] showed a BA in data set [2] of 10%. In the data set “in vivo”, this compound displayed an exposure (AUC) of 1300 ng·h/mL and a Cmax of 333 ng/mL.
The compound `CCCCN1C(=O)[C@@H]([C@H](O)C2CCCCC2)NC(=O)C12CCN(Cc1ccc(Oc3ccc(NS(C)(=O)=O)cc3)cc1)CC2.Cl` [Compound 13, N-{4-[4-({(3R)-1-Butyl-3-[(R)-cyclohexyl (hydroxy)methyl]-2,5-dioxo-1,4,9-triazaspiro[5.5]undec-9-yl}methyl)phenoxy]phenyl}methanesulfonamide hydrochloride] displayed a BA in data set [2] of 5%. In the data set “in vivo”, this compound yielded an area under the curve (AUC) of 242 ng·h/mL and a peak concentration (Cmax) of 50 ng/mL.
Consider `CCCCN1C(=O)[C@@H]([C@H](O)C(C)C)NC(=O)C12CCN(Cc1ccc(Oc3ccc(C(=O)O)cc3)cc1)CC2.Cl` [Compound 14, 4-[4-({(3R)-1-Butyl-3-[(1R)-1-hydroxy-2-methylpropyl]-2,5-dioxo-1,4,9-triazaspiro[5.5]undec-9-yl}methyl)phenoxy]benzoic acid hydrochloride], for which the BA in data set [2] is 5.9%. Besides, the exposure (AUC) in “in vivo” is 150 ng·h/mL.
As for `CCCCN1C(=O)[C@@H]([C@H](O)C2CCOCC2)NC(=O)C12CCN(Cc1ccc(Oc3ccc(C(=O)O)cc3)cc1)CC2` [Compound 19, 4-[4-({(3R)-1-Butyl-3-[(R)-hydroxy(tetrahydro-2H-pyran-4-yl)methyl]-2,5-dioxo-1,4,9-triazaspiro[5.5]undec-9-yl}methyl)phenoxy]benzoic acid hydrochloride], in data set [1] (read-out: Fusion assay IC50), the IC50 amounted to 302 nM.
As to `CCCCN1C(=O)[C@@H]([C@H](O)C2CCC(O)CC2)NC(=O)C12CCN(Cc1ccc(Oc3ccc(C(=O)O)cc3)cc1)CC2` (stereo partly drawn) [Compound 20a, 4-[4-({(3R)-1-Butyl-3-[(R)-hydroxy(4-hydroxycyclohexyl)methyl]-2,5-dioxo-1,4,9-triazaspiro[5.5]undec-9-yl}methyl)phenoxy]benzoic acid hydrochloride], the IC50 in [1] (read-out: Fusion assay IC50) was found to be 537 nM.
With `CNC(=O)c1ccc(Oc2ccc(CN3CCC4(CC3)C(=O)N[C@H]([C@H](O)C3CCCCC3)C(=O)N4C)cc2)cc1` [Compound 22, 4-[4-({(3R)-3-[(R)-Cyclohexyl(hydroxy)methyl]-1-methyl-2,5-dioxo-1,4,9-triazaspiro[5.5]undec-9-yl}methyl)phenoxy]-N-methylbenzamide hydrochloride], the IC50 in data set [1] (read-out: Fusion assay) was 1860 nM.
The same measure, in the same setting: to `CCCN1C(=O)[C@@H]([C@H](O)C2CCCCC2)NC(=O)C12CCN(Cc1ccc(Oc3ccc(C(=O)O)cc3)cc1)CC2` [Compound 25, 4-[4-({(3R)-3-[(R)-Cyclohexyl(hydroxy)methyl]-2,5-dioxo-1-propyl-1,4,9-triazaspiro[5.5]undec-9-yl}methyl)phenoxy]benzoic acid hydrochloride] belongs 112 nM.
Compound `CCCN1C(=O)[C@@H]([C@H](O)C2CCCCC2)NC(=O)C12CCN(Cc1ccc(Oc3ccc(C(=O)NC)cc3)cc1)CC2.Cl` [Compound 26, 4-[4-({(3R)-3-[(R)-Cyclohexyl(hydroxy)methyl]-2,5-dioxo-1-propyl-1,4,9-triazaspiro[5.5]undec-9-yl}methyl)phenoxy]-N-methylbenzamide hydrochloride] came in with a BA in data set [2] of 11.2%. In the data set “in vivo”, this compound yielded an AUC of 513 ng·h/mL and a Cmax of 133 ng/mL.
As to `CNC(=O)c1ccc(Oc2ccc(CN3CCC4(CC3)C(=O)N[C@H]([C@H](O)C3CCCCC3)C(=O)N4CCC(C)O)cc2)cc1` (stereo partly drawn) [Compound 30, 4-(4-{[(3R)-3-[(R)-Cyclohexyl(hydroxy)methyl]-1-(3-hydroxybutyl)-2,5-dioxo-1,4,9-triazaspiro[5.5]undec-9-yl]methyl}phenoxy)-N-methylbenzamide hydrochloride], the IC50 in [1] (read-out: Fusion assay) was roughly 10000 nM.
Regarding `CNC(=O)c1ccc(Oc2ccc(CN3CCC4(CC3)C(=O)N[C@H]([C@H](O)C3CCCCC3)C(=O)N4CCN)cc2)cc1.Cl.Cl` [Compound 32, 4-[4-({(3R)-1-(2-Aminoethyl)-3-[(R)-cyclohexyl(hydroxy)methyl]-2,5-dioxo-1,4,9-triazaspiro[5.5]undec-9-yl}methyl)phenoxy]-N-methylbenzamide dihydrochloride], the “fold less potent antagonist activity relative to 10” value on human CCR5 [7] was greater than 10 fold.
As to `CNC(=O)c1ccc(Oc2ccc(CN3CCC4(CC3)C(=O)N[C@H]([C@H](O)C3CCCCC3)C(=O)N4CCN(C)C)cc2)cc1.Cl.Cl` [Compound 33, 4-[4-({(3R)-3-[(R)-Cyclohexyl(hydroxy)methyl]-1-[2-(dimethylamino)ethyl]-2,5-dioxo-1,4,9-triazaspiro[5.5]undec-9-yl}methyl)phenoxy]-N-methylbenzamide dihydrochloride], the “fold less potent antagonist activity relative to 10” value at human CCR5 [7] was greater than 10 fold.
The term IC90 denotes the concentration needed for an effect of 90%. SCH-351125: the IC50 worked out at 4 ± 2 nM in the data set on HIV-1Ba-L (R5) (read-out: Anti-HIV-1 activity HIV-1Ba-L (R5) IC50 ± SD) and 3 ± 0.5 nM with HIV-1MM (R5MDR). Moreover, in the data set on HIV-1Ba-L (R5) (read-out: Anti-HIV-1 activity HIV-1Ba-L (R5) IC90 ± SD), the IC90 was 79 ± 52 nM.
